Laboratory results reported in patent US20250120964A1, “USE OF NOVEL MOLECULAR GLUE” (ASTROGEN, INC., priority 2023, published 2025).

Assays:
[1] = test system: U373 brain cancer cell line; experiment: In vitro cell survival assay (nuclear staining), U373; assay type: cell-based; settings: Homo sapiens, U373 MG; U373, 48 hours treatment, cell number by nuclear staining
Protocol: (§1) An in vitro experiment was carried out to check whether the compound (AST-DT-218) prepared in Example 2 was effective in the cell death in the brain cancer. First, brain cancer cell lines (U87, U373, and SK-N-SH) were cultured in the respective flasks to prepare cells that had reached the logarithmic growth stage. Then, the cells were washed with PBS, harvested with trypsin, centrifuged to adjust the cell density, and then resuspended in a suitable culture medium, and the cells were dispensed into a 96-well plate. The culture was carried out until the cells were attached to the plate and stabilized. AST-DT-218 and temozolomide, a conventional therapeutic agent for glioblastoma, were prepared and diluted at various concentrations (½ dilution from the highest concentration of 50 μM, 10-point). The cells in the well of the plate were treated for 48 hours with each compound at individual concentrations, and the cells were cultured to react with the compound. After the culture was completed, the number of cells was measured through the nuclear staining of the cells to evaluate the cell survival rate (FIG. 1), and IC50 was calculated (Table 2).

[2] = test system: U87 brain cancer cell line; experiment: In vitro cell survival assay (nuclear staining), U87; assay type: cell-based; settings: for IC50: U87, 48 hours treatment, cell number by nuclear staining
Protocol: as §1

[3] = test system: U87 cells; experiment: Colony-formation assay; assay type: cell-based; settings: cultured about two weeks, crystal violet
Protocol: U87 cells, which are a brain cancer cell line, were cultured, the cells were separated using Trypsin-EDTA when the cells grew sufficiently, the cells were distributed uniformly on a 12-well plate, and the cells were treated with AST-DT-218 in each well after being attached. Then, the cells were cultured for about two weeks in an environment of 37° C. and about 5% CO2. When the cultivation was completed, the cells were fixed. Then, the colonies were stained with a crystal violet solution, and after the staining, the colonies were washed with PBS to remove background staining. A microscope was used to observe the colonies, and the number and size of the colonies were measured and quantified (FIG. 2).

[4] = test system: U87 cells; experiment: Measurement of sub G1 population (flow cytometry); assay type: cell-based; settings: 48 hours, 0.5 μM and 1 μM
Protocol: The sub G1 population was measured to check whether AST-DT-218 induces DNA fragmentation and apoptosis as in Experimental Example 3-1. […] The value of the sub G1 population of cells was measured using a flow cytometry apparatus (FIG. 5).

[5] = test system: U87 cells; experiment: Propidium iodide (PI) apoptosis assay; assay type: cell-based; settings: flow cytometry
Protocol: A PI apoptosis assay was carried out to check whether AST-DT-218 induces DNA fragmentation and apoptosis as in Experimental Example 3-1. A PI detection kit was prepared, propidium iodide (PI) was added to the U87 cells that had been treated with AST-DT-218, and a reaction was allowed to proceed at room temperature in a dark room for 10 minutes. Then, PI fluorescence was measured using a flow cytometry apparatus (FIG. 4).

[6] = test system: SK-N-SH brain cancer cell line; experiment: In vitro cell survival assay (nuclear staining), SK-N-SH; assay type: cell-based; settings: Homo sapiens, 48 hours treatment, cell number by nuclear staining
Protocol: as §1

[7] = test system: 83NS (GSC cell line derived from a GBM patient) orthotopic glioblastoma model; experiment: In vivo orthotopic glioblastoma xenograft model, survival; settings: mice, oral daily 50 mg/kg for 4 weeks, 83NS orthotopic model
Protocol: An in vivo experiment was carried out using a xenograft model. Specifically, 83NS (GSC cell line derived from a GBM patient) was used to construct an orthotopic glioblastoma model in such a way that 1×10^4 cells were injected into the brain of each of mice (n=16) at a volume of 3 μl. Thereafter, a vehicle was administered to mice (n=8), and AST-DT-218 was orally administered daily to the remaining mice (n=8) at a concentration of 50 mg/kg for 4 weeks, […]. On the other hand, the drug to be administered was changed to AST-DT-135, and the same experiment was carried out.

[8] = test system: U87 cells; experiment: Western blotting of gamma-H2AX and cleaved PARP; assay type: cell-based
Protocol: The following experiments were carried out to check whether AST-DT-218 induces DNA fragmentation and apoptosis. First, U87 cells were cultured, the cells were separated using Trypsin-EDTA when the cells grew sufficiently, the cells were plated and distributed uniformly on a 12-well plate, and the cells were treated with AST-DT-218 after being attached. Subsequently, the cells were washed with PBS, proteins were extracted using a cell lysis buffer, and the cell extract was centrifugated to collect the supernatant. Then, protein samples having the same concentration were loaded onto an SDS-PAGE gel and subjected to electrophoresis, and the proteins were transferred to a PVDF membrane. After blocking the membrane with 5% skim milk (or BSA), each of the antibodies against γ-H2AX (DNA damage marker), cleaved PARP (apoptosis marker), and beta-actin was treated at 4° C. for 16 hours. The Western blotting results were analyzed to evaluate the expression levels of gamma-H2AX and cleaved PARP. Beta-actin was used as a loading control to check the consistency of the protein loading.

[9] = test system: U87 glioblastoma-derived brain cancer cell line; experiment: Dose response curve (DRC), cell survival, U87; assay type: cell-based
Protocol: (§2) The DRC was created in order to check whether AST-DT-218 is effective in the cell death in the brain cancer. First, glioblastoma-derived brain cancer cell lines (U87 and U373) were cultured in the respective flasks to prepare cells that had reached the logarithmic growth stage. Then, the cells were washed with PBS, harvested with trypsin, centrifuged to adjust the cell density, and then resuspended in a suitable culture medium, and the cells were dispensed into a 96-well plate. Cells were cultured until they were attached to the plate and stabilized, AST-DT-218 and a control group (lenalidomide, pomalidomide) were prepared and diluted to a variety of concentrations (½ dilution from the highest concentration of 10 μM, 10-point). The cells in the well of the plate were treated for 48 hours with each compound at individual concentrations, and the cells were cultured to react with the compound. After the culture was completed, the number of cells was measured through the nuclear staining of the cells to evaluate the cell survival rate. The cell survival rate at each concentration was measured to collect data. Then, the DRC was created (FIG. 6 and FIG. 7), and IC50 was calculated (Table 3).

[10] = test system: U373 glioblastoma-derived brain cancer cell line; experiment: Dose response curve (DRC), cell survival, U373; assay type: cell-based; settings: Homo sapiens, U373 MG; Glioblastoma U373, 48 hours, highest concentration 10 μM; read-out: IC50 of AST-DT-218, U373
Protocol: as §2

SMILES | IC50 [1] [µM] | IC50 [2] [µM] | cell death efficacy compared with temozolomide ([2]; brain cancer cell lines U87, U373, SK-N-SH, summary of Table 2) | formation of colonies [3] | value of the sub G1 population [4] | DNA fragmentation and apoptosis (PI fluorescence) [5] | IC50 [6] [µM] | survival rate (Kaplan-Meier analysis) versus vehicle [7] | DNA fragmentation and apoptosis (expression of gamma-H2AX and cleaved PARP) [8] | IC50 ([9]; Glioblastoma U87, 48 hours, highest concentration 10 μM, read-out: IC50 of AST-DT-218, U87) [µM] | cell death of brain cancer cells compared with lenalidomide and pomalidomide ([9]; U87 and U373, DRC) | IC50 [10] [µM]
COc1ccc([C@@H](C)Nc2cccc3c2C(=O)N(C2CCC(=O)NC2=O)C3=O)cc1 (stereo partly drawn) [AST-DT-218, 2-(2,6-dioxopiperidin-3-yl)-4-(((R)-1-(4-methoxyphenyl)ethyl)amino)isoindoline-1,3-dione] | 0.7 | 3.39 | efficacy superior to temozolomide | significantly reduced the formation of colonies | increased | induced DNA fragmentation and apoptosis | 0.239 | significantly increased survival rate | induced DNA fragmentation and apoptosis | 3.36 | effective in the cell death of the brain cancer cells | 1.24
Cn1nnc2c(C(N)=O)ncn2c1=O [Temozolomide, temozolomide, reference compound] | – | 291 | – | – | – | – | 24.6 | – | – | – | – | –
CCC[C@H](C)Nc1cccc2c1C(=O)N(C1CCC(=O)NC1=O)C2=O (stereo partly drawn) [AST-DT-135, 2-(2,6-dioxopiperidin-3-yl)-4-(((S)-pentan-2-yl)amino)isoindoline-1,3-dione] | – | – | – | – | – | – | – | significantly increased survival rate | – | – | – | –
